# Experiments:
# [1] = system: MG1363; experiment: Culture with hemin and agitation, different strains (Example 4); assay type: cell-based, L. lactis; settings: strain MG1363, hemin 10 μg/ml and agitation, M17 1% glucose, 24 h
# Method: (§1) Bacteria [MG1363 and 7 strains (IL1403, IL582, IL801, IL896, Z105, Z106, Z191) representative of L. lactis subgroups [TAILLEZ et al., System. Appl. Microbiol., 21, 530-538, (1998)] are cultured in M17 medium (1% glucose) inoculated (1/1000 dilution) with a saturated starter culture previously grown at 30° C. for 24 h. Hemin at a final concentration of 10 μg/ml is added to the inoculated medium before aerating the cultures by shaking (minimum 220 rpm). Control cultures are grown in parallel with no hemin in the medium, and no shaking. […]
# [2] = system: Z191; experiment: as above; assay type: cell-based, L. lactis; settings: strain Z191, hemin 10 μg/ml and agitation, M17 1% glucose, 24 h
# Method: as §1
# [3] = system: IL1403; experiment: as above; assay type: cell-based, L. lactis; settings: strain IL1403, hemin 10 μg/ml and agitation, M17 1% glucose, 24 h
# Method: as §1
# [4] = system: Lactococcus lactis subsp. cremoris strain MG1363; experiment: Culturing in the presence of hemin with aeration (Example 1.1); assay type: cell-based; settings: for pH: final pH of medium; for pH / OD600 nm / Viable bacterial count / Concentration of lactic acid: hemin 10 μg/ml, aeration, 24 h
# Method: A laboratory medium (M17 supplemented with glucose in amounts, as indicated in the Table I, lactose being also usable) is inoculated with the Lactococcus lactic subsp. cremoris strain MG1363 in the form of a 1/100 or 1/1000 dilution of a saturated culture (prepared at 30° C. with no shaking). The inoculated medium contained or not hemin at a final concentration of 10 μg/ml (a 0.5 mg/ml stock solution is prepared by dissolving 100 mg of hemin in 2 ml of 5N NaOH, to which 198 ml of water is then added; the solution is autoclaved at 120° C. for 20 minutes). For bacteria grown in medium containing hemin, cultures were maintained at 30° C. with shaking (250 rotations per minute) in order to ensure oxygenation. Control cultures, without addition of hemin and without shaking, were grown at 30° C. in parallel. After 24 h of growth, aliquots are removed to measure the optical density at 600 nm (OD600 nm), the number of viable bacteria, the final pH and the concentration of lactic acid in the medium.
# [5] = system: IL801; experiment: Culture with hemin and agitation, different strains (Example 4); assay type: cell-based, L. lactis; settings: strain IL801, hemin 10 μg/ml and agitation, M17 1% glucose, 24 h
# [6] = system: Lactococcus lactis subsp. cremoris strain MG1363; experiment: Survival of the lactic acid bacteria during storage at 30° C. (Example 2); assay type: cell-based; settings: for Number of viable cells: hemin 10 μg/ml and aeration, 1% glucose M17
# Method: (§2) A laboratory medium, i.e. M17 supplemented with 1% of glucose, is inoculated with Lactococcus lactis subsp. cremoris strain MG1363 in the form of a 1/1000 dilution of a saturated culture. The cultures are then divided into two equal parts, and hemin is added to one of these two cultures to give a final concentration of 10 μg/ml. […] Aliquots of the two cultures are removed regularly during the exponential growth phase in order to monitor viability, rate of growth and pH. After 24 h of growth, the cultures are placed (stored) in a 30° C. incubator without shaking, and aliquots are removed every 24 h in order to monitor the viability of the cells.
# [7] = system: Lactococcus lactis subsp. cremoris strain MG1363; experiment: Survival of the lactic acid bacteria during storage at 4° C. (Example 3); assay type: cell-based; settings: for Number of cells per ml: porphyrin compound and aeration, 1% glucose M17, storage at 4° C.
# Method: as §2, with “cells. The Lactococcus lactis subsp. cremoris strain MG1363 was cultured as in the experiment described in Example 2, but the storage, which is carried out 24 h after inoculation, is at 4° C. instead of at 30° C.” for “cells.”
# [8] = glucose 5 g/l, dilution factor 100
# [9] = glucose 5 g/l, dilution factor 1000
# [10] = glucose 6 g/l, dilution factor 100
# [11] = glucose 6 g/l, dilution factor 1000
# [12] = glucose 7 g/l, dilution factor 100
# [13] = glucose 7 g/l, dilution factor 1000
# [14] = glucose 8 g/l, dilution factor 100
# [15] = glucose 8 g/l, dilution factor 1000
# [16] = glucose 9 g/l, dilution factor 100
# [17] = glucose 9 g/l, dilution factor 1000
# [18] = glucose 10 g/l, dilution factor 100
# [19] = glucose 10 g/l, dilution factor 1000
smiles,measurement,setting,value
C=CC1=C(C)c2cc3[n-]c(cc4nc(cc5[n-]c(cc1n2)c(C)c5C=C)C(C)=C4CCC(=O)O)c(CCC(=O)O)c3C.[Cl-].[Fe+3] [hemin],pH,[1]; final pH,5.86
same,OD500 nm,[1],5
same,pH,[2]; final pH,5.36
same,OD500 nm,[2],3.8
same,pH,[3]; final pH,5.41
same,OD500 nm,[3],5.3
same,production of lactic acid as share of the quantity of sugar added,[4]; cells cultured in the presence of hemin and oxygen,less than 10%
same,pH,[4]; [8],6.2
same,pH,[4]; [9],6.19
same,pH,[4]; [10],6.25
same,pH,[4]; [11],6.13
same,pH,[4]; [12],6.09
same,pH,[4]; [13],6.07
same,pH,[4]; [14],6.04
same,pH,[4]; [15],6.03
same,pH,[4]; [16],6.02
same,pH,[4]; [17],6.01
same,pH,[4]; [18],6.01
same,pH,[4]; [19],5.99
same,OD600 nm,[4]; [8],4.6
same,Viable bacterial count,[4]; [8],5.7 ×10^9
same,Concentration of lactic acid,[4]; [9],0.12 g/L
same,OD600 nm,[4]; [9],4.5
same,Viable bacterial count,[4]; [9],5.7 ×10^9
same,OD600 nm,[4]; [10],5.1
same,Viable bacterial count,[4]; [10],6 ×10^9
same,Concentration of lactic acid,[4]; [11],0.14 g/L
same,OD600 nm,[4]; [11],5.5
same,Viable bacterial count,[4]; [11],7.6 ×10^9
same,OD600 nm,[4]; [12],5.6
same,Viable bacterial count,[4]; [12],9.1 ×10^9
same,Concentration of lactic acid,[4]; [13],0.19 g/L
same,OD600 nm,[4]; [13],5.7
same,Viable bacterial count,[4]; [13],8.6 ×10^9
same,OD600 nm,[4]; [14],5.9
same,Viable bacterial count,[4]; [14],8.9 ×10^9
same,Concentration of lactic acid,[4]; [15],0.35 g/L
same,OD600 nm,[4]; [15],5.4
same,Viable bacterial count,[4]; [15],9.3 ×10^9
same,OD600 nm,[4]; [16],5.9
same,Viable bacterial count,[4]; [16],9.2 ×10^9
same,Concentration of lactic acid,[4]; [17],0.52 g/L
same,OD600 nm,[4]; [17],5.8
same,Viable bacterial count,[4]; [17],9.4 ×10^9
same,OD600 nm,[4]; [18],6.1
same,Viable bacterial count,[4]; [18],10.1 ×10^9
same,Concentration of lactic acid,[4]; [19],0.98 g/L
same,OD600 nm,[4]; [19],6.2
same,Viable bacterial count,[4]; [19],9.6 ×10^9
same,pH of the culture (remains stable),"[4]; hemin and oxygen, whatever the concentration of glucose",approximately 6.1
same,pH,[5]; final pH,5.44
same,OD500 nm,[5],4.3
same,viability after one day of storage,"[6]; 2 days after inoculation, storage at 30° C., hemin and oxygen",do not lose any viability
same,rate of survival,"[6]; after 5 days of storage at 30° C., grown with aeration and hemin",approximately 10^−2
same,Number of viable cells,[6]; 0 days after inoculation,1 × 10^6
same,Number of viable cells,[6]; 1 day after inoculation,1.76 × 10^10
same,Number of viable cells,"[6]; 2 days after inoculation, stored at 30° C.",1.71 × 10^10
same,Number of viable cells,"[6]; 3 days after inoculation, stored at 30° C.",5.32 × 10^9
same,Number of viable cells,"[6]; 5 days after inoculation, stored at 30° C.",4.3 × 10^8
same,Number of viable cells,"[6]; 6 days after inoculation, stored at 30° C.",8.5 × 10^7
same,survival rate,"[7]; after 2 months at 4° C., cultured with porphyrin compound under aeration",~5%
same,Number of cells per ml,[7]; 0 days after culture,4.3 × 10^9 cells per ml
same,Number of cells per ml,[7]; 1 day after culture,4.2 × 10^9 cells per ml
same,Number of cells per ml,[7]; 2 days after culture,3.8 × 10^9 cells per ml
same,Number of cells per ml,[7]; 3 days after culture,3.8 × 10^9 cells per ml
same,Number of cells per ml,[7]; 7 days after culture,4.2 × 10^9 cells per ml
same,Number of cells per ml,[7]; 8 days after culture,2.8 × 10^9 cells per ml
same,Number of cells per ml,[7]; 9 days after culture,2.2 × 10^9 cells per ml
same,Number of cells per ml,[7]; 10 days after culture,9.6 × 10^8 cells per ml
same,Number of cells per ml,[7]; 13 days after culture,5.0 × 10^8 cells per ml
same,Number of cells per ml,[7]; 15 days after culture,3.2 × 10^8 cells per ml
same,Number of cells per ml,[7]; 22 days after culture,3.0 × 10^8 cells per ml
same,Number of cells per ml,[7]; 28 days after culture,3.0 × 10^8 cells per ml
same,Number of cells per ml,[7]; 36 days after culture,2.9 × 10^8 cells per ml
same,Number of cells per ml,[7]; 43 days after culture,2.2 × 10^8 cells per ml
same,Number of cells per ml,[7]; 50 days after culture,1.8 × 10^8 cells per ml
same,Number of cells per ml,[7]; 57 days after culture,2.0 × 10^8 cells per ml

# — US20160075991A1, “Process for Preparing Starter Cultures of Lactic Acid Bacteria” (INSTITUT NATIONAL DE LA RECHERCHE, priority 1998, published 2016)
